Article PMC12410356 (International Journal for Parasitology: Drugs and Drug …, 2025)

Key:
[1] = tested on: E. multilocularis metacestode vesicles; experiment: Phosphoglucose isomerase (PGI) release assay (damage-marker release) on metacestode vesicles; assay type: cell-based, Echinococcus multilocularis; settings: for PGI d5 (relative PGI release) / PGI d12 (relative PGI release): 10 μM; for PGI d5 (relative PGI release): 5 days; for PGI d12 (relative PGI release): 12 days
cancer cell lines = tested on: cancer cell lines; design: method as in Maeda et al., 2020; settings: ref Maeda et al., 2020; cited from earlier work
[2] = tested on: E. multilocularis GL cells; experiment: Seahorse mito cell stress test, oxygen consumption rate; assay type: cell-based, Echinococcus multilocularis; settings: titration in GL cells
Protocol: To measure mitochondrial respiration in E. multilocularis GL cells, Seahorse “mito cell stress test” was performed according to the manual for Seahorse XFp Extracellular Flux Analyzer (Agilent Technologies, Basel, Switzerland) with some adaptations ([Gu et al., 2021]; [Rufener et al., 2018]). Seahorse XFp 8-well plates were hydrated and incubated together with Seahorse XF calibrant solution at 37 °C in a non-CO2 incubator overnight the day before the actual experiment. […] Oligomycin was used at a final concentration of 1.5 μM. […] The experiment was repeated three times independently with two technical replicates.

[3] = tested on: E. multilocularis GL cells; experiment: Germinal layer cell viability assay (CellTiter-Glo); assay type: cell-based, Echinococcus multilocularis
Protocol: The isolation of GL cells was conducted according to ([Kaethner et al., 2023]). Briefly, conditioned DMEM (cDMEM) was prepared prior to isolation. For the preparation of cDMEM, 1 × 10^6 RH cells and 10 × 10^6 RH cells incubated in DMEM supplemented with 10 % FBS, penicillin (100 U/mL), streptomycin (100 μg/mL) and tetracycline (5 μg/mL) for six or four days, respectively, at 37 °C under a humid, 5 % CO2 atmosphere. The supernatant of each was mixed 1:1 and sterile filtrated, resulting in cDMEM. Metacestode vesicles of at least 6 months of age were washed with PBS, incubated in distilled H2O for 2.5 min and subsequently mechanically disrupted. The resulting pellet was resuspended in 7 vol of pre-warmed 0.05 % Trypsin/0.02 % EDTA and incubated at 37 °C for 30 min. GL cells were extracted from the laminated layer by vigorous shaking followed by filtration through a 30 μm mesh (Sefar AG, Heiden, Switzerland) and separated from calcareous corpuscles by short centrifugation at 50×g for 30 s at RT. The isolated cells were centrifuged for 10 min at 600×g and RT and the pellet was resuspended in cDMEM. The cell suspension was diluted 1:100 in PBS to measure the OD600. An OD600 value of 0.1 of this dilution was defined as one arbitrary unit (AU) per μL of the undiluted cell suspension corresponding to 0.97 ± 0.11 μg of total protein for the GL cells as measured via Pierce™ bicinchoninic acid (BCA) Protein Assay Kit according to the manufacturer's protocol (Fisher Scientific AG, Reinach, Switzerland). 1′000 AU per 5 mL of cDMEM were cultured at 37 °C overnight under a humid nitrogen atmosphere. The next day, 2′000 AU of GL cells were combined and further cultured for 3 h at 37 °C under a humid nitrogen atmosphere before they were used for further experiments.
To assess effects of compounds on the cell viability of isolated E. multilocularis GL cells, the protocol was applied as previously described ([Kaethner et al., 2023]). In short, 15 AU of GL cells were distributed into each well of a black 384-well plate. Compounds dissolved in DMSO (alexidine, carbendazim, ESI-09, MMV1581545 and oxfendazole) were added to final concentrations ranging from 80 to 0.31 μM (1:2 serial dilution) and the cells were cultured for 5 days at 37 °C under a humid, microaerobic atmosphere (85 % N2, 10 % CO2, 5 % O2). DMSO with the respective concentration was used as a solvent control. Viability was measured using the CellTiter-Glo® kit. Luminescence was measured using a HIDEX Sense microplate reader. Measurements were done in quadruplicates and represented as relative viability of the DMSO controls. IC50 values were calculated in R applying the five parameter logistic model for three independent experiments ([Ritler et al., 2020]).

[4] = tested on: E. multilocularis metacestode vesicles; experiment: Transmission electron microscopy of treated metacestode vesicles; assay type: cell-based, Echinococcus multilocularis; settings: 1 μM, 24 h
Protocol: To investigate induction of ultrastructural changes in E. multilocularis metacestode vesicles treated with ESI-09, transmission electron microscopy (TEM) was performed. Metacestode vesicles were treated with either 1 μM ESI-09 or the solvent control DMSO with subsequent incubation for 24 h at 37 °C under a humid, 5 % CO2 atmosphere. Processing and imaging was done as previously described ([Kaethner et al., 2023]).

[5] = confirmation screen, triplicates, mean
[6] = overview screen, singlets, relative to 0.1 % Triton X-100, DMSO subtracted

CC(C)(C)c1cc(C(=O)/C(C#N)=N/Nc2cccc(Cl)c2)no1 [ESI-09]
IC50 ([1]; Echinococcus multilocularis, 288 h, 12 days incubation, mean ± SD of three independent experiments): 6.06 ± 3.18 µM
PGI d5 (relative PGI release) [1, 5]: 6.08%
PGI d12 (relative PGI release) [1, 5]: 38.44%
detachment of the GL from the laminated layer, visible from concentration ([1]; microscopy pictures, 12 days incubation): ≥ 13.3 µM
PGI d5 (relative PGI release) [1, 6]: 33.0513%
PGI d12 (relative PGI release) [1, 6]: 64.0941%
optimal uncoupling concentration in cancer cell lines (cancer cell lines): 2 µM
optimal (maximal) uncoupling concentration [2]: 2 µM
effect on GL cell viability (in words) ([3]; 80 to 0.31 μM, 5 days): highly effective
IC50 ([3]; Echinococcus multilocularis, 120 h, 5 days incubation, microaerobic, mean ± SD of three independent experiments): 2.45 ± 0.86 µM
ultrastructural changes in metacestode vesicles (in words) [4]: induced distinct ultrastructural changes
ultrastructural changes in mitochondria (in words) [4]: no ultrastructural changes in mitochondria were seen
